The numbers were not newly measured in US8877241B2 (Egalet Ltd., priority 2003, dated 2014), which cites them from elsewhere.

The structures appear in SMILES notation.

The conditions of this data set: single dose of 10 mg oral morphine, plain tablet composition.

With `CN1CC[C@]23c4c5ccc(O)c4O[C@H]2[C@@H](O)C=C[C@H]3[C@H]1C5` [morphine], the “average duration of action” value is 4 to 5 h.
